Literature values in PMC5111365 (The Analyst, 2016).
No end group written: not given here. *: point of attachment. 5FAM = O=C1OC2(c3ccc(O)cc3Oc3cc(O)ccc32)c2ccc(C(=O)*)cc21

How the values were obtained:
[1] = 3 mg mL^-1 total protein, data from previous work
[2] = biological target: Abl-1 human recombinant protein (Homo sapiens, UniProt P00519); settings: 12 nM kinase; data from previous work
Abl-1 human recombinant protein, sequence (P00519 whole entry): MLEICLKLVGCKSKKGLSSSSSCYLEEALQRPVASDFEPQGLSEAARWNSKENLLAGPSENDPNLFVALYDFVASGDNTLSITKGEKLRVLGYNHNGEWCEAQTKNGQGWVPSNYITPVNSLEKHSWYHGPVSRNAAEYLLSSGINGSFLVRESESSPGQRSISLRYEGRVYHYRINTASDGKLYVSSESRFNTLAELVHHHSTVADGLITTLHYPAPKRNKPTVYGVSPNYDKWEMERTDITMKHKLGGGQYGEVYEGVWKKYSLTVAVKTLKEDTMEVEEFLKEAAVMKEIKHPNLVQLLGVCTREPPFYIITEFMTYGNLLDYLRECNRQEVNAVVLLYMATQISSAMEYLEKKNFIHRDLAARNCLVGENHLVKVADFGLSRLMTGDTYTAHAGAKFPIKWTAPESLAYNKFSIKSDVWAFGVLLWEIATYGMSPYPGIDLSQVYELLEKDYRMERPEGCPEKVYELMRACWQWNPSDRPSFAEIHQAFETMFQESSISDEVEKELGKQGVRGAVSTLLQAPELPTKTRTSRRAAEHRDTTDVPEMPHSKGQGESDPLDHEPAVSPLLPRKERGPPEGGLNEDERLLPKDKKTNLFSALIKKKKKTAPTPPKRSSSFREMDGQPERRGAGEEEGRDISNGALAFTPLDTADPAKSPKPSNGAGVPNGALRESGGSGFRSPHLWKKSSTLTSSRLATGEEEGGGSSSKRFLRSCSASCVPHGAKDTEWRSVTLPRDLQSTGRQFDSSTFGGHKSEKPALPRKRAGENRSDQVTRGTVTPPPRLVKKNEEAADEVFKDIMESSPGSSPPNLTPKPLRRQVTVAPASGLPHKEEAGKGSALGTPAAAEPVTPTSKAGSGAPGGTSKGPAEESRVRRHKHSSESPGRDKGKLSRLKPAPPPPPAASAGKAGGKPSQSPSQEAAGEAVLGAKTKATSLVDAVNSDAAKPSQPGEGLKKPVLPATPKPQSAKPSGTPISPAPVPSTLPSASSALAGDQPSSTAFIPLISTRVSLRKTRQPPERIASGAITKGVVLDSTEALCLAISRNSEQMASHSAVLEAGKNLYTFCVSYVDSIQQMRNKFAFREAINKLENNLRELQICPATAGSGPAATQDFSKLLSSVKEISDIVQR

t1/2, time at which 50% of the peptide was degraded in the cytosolic lysate [1]: 1.3 min | t50% P, time required for 50% of the peptide to be phosphorylated by Abl-1 kinase [2]: 190 min
Substance: 5FAM-GGAYAAPFKKKA [III-67B]
